System: 415267-285-R-J2-PDC complex spheroid viability
Test: Anticancer human tumor 415267-285-R-J2-PDC patient-derived breast carcinoma cell line growth inhibition [POLQ]
Conditions: for IC50: curve of first compound; for viability, T/C: stronger effect = lower value
In short: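 PDC + HUVEC + MSC complex spheroids; POLQ inhibitors ± partner drugs; top conc. at/near clinical Cmax, else 10 microM (SN-38 1 microM), half-log dilutions; 37 degrees C, 5% CO2.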
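Note: spheroids exposed to compounds for one week before readout.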
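Throughout, for viability, T/C: luminescence used as stand-in measure of viable cells; 100% = DMSO vehicle control viability.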

Compound: CNCc1ccc(-c2[nH]c3cc(F)cc4c3c2CCNC4=O)cc1 + Nc1ccc(C#CCN(C(=O)Cc2ncc(C(F)(F)F)cc2C(F)(F)F)c2ccc(F)cc2)nn1
- IC50 (second compound 0.0316 µM): > 10 µM
- IC50 (second compound 0.1 µM): > 10 µM
- IC50 (second compound 0.316 µM): > 10 µM
- IC50 (second compound 1 µM): > 10 µM
- IC50 (second compound 3.16 µM): > 10 µM
- IC50 (second compound 10 µM): > 10 µM
- viability, T/C (second compound 0.0316 µM, first compound 0.0316 µM): 98.9%
- viability, T/C (second compound 0.0316 µM, first compound 0.1 µM): 107%
- viability, T/C (second compound 0.0316 µM, first compound 0.316 µM): 91.1%
- viability, T/C (second compound 0.0316 µM, first compound 1 µM): 84.6%
- viability, T/C (second compound 0.0316 µM, first compound 3.16 µM): 91.9%
- viability, T/C (second compound 0.0316 µM, first compound 10 µM): 103%
- viability, T/C (second compound 0.1 µM, first compound 0.0316 µM): 89.7%
- viability, T/C (second compound 0.1 µM, first compound 0.1 µM): 105%
- viability, T/C (second compound 0.1 µM, first compound 0.316 µM): 93.2%
- viability, T/C (second compound 0.1 µM, first compound 1 µM): 87.9%
- viability, T/C (second compound 0.1 µM, first compound 3.16 µM): 101%
- viability, T/C (second compound 0.1 µM, first compound 10 µM): 102%
- viability, T/C (second compound 0.316 µM, first compound 0.0316 µM): 98.9%
- viability, T/C (second compound 0.316 µM, first compound 0.1 µM): 93.2%
- viability, T/C (second compound 0.316 µM, first compound 0.316 µM): 91.4%
- viability, T/C (second compound 0.316 µM, first compound 1 µM): 106%
- viability, T/C (second compound 0.316 µM, first compound 3.16 µM): 94.4%
- viability, T/C (second compound 0.316 µM, first compound 10 µM): 108%
- viability, T/C (second compound 1 µM, first compound 0.0316 µM): 97.3%
- viability, T/C (second compound 1 µM, first compound 0.1 µM): 98.7%
- viability, T/C (second compound 1 µM, first compound 0.316 µM): 92.9%
- viability, T/C (second compound 1 µM, first compound 1 µM): 98.6%
- viability, T/C (second compound 1 µM, first compound 3.16 µM): 106%
- viability, T/C (second compound 1 µM, first compound 10 µM): 118%
- viability, T/C (second compound 3.16 µM, first compound 0.0316 µM): 91.1%
- viability, T/C (second compound 3.16 µM, first compound 0.1 µM): 100%
- viability, T/C (second compound 3.16 µM, first compound 0.316 µM): 94%
- viability, T/C (second compound 3.16 µM, first compound 1 µM): 96.5%
- viability, T/C (second compound 3.16 µM, first compound 3.16 µM): 109%
- viability, T/C (second compound 3.16 µM, first compound 10 µM): 107%
- viability, T/C (second compound 10 µM, first compound 0.0316 µM): 101%
- viability, T/C (second compound 10 µM, first compound 0.1 µM): 97.6%
- viability, T/C (second compound 10 µM, first compound 0.316 µM): 105%
- viability, T/C (second compound 10 µM, first compound 1 µM): 105%
- viability, T/C (second compound 10 µM, first compound 3.16 µM): 113%
- viability, T/C (second compound 10 µM, first compound 10 µM): 110%

Compound: CC(=O)O[C@H]1C(=O)[C@@]2(C)[C@H]([C@H](OC(=O)c3ccccc3)[C@]3(O)C[C@H](OC(=O)[C@H](O)[C@@H](NC(=O)c4ccccc4)c4ccccc4)C(C)=C1C3(C)C)[C@]1(OC(C)=O)CO[C@@H]1C[C@@H]2O + Cc1cccc(N(C)C(=O)C2C(O)CCN2c2nc(C)cc(C(F)(F)F)c2C#N)c1
- IC50 (second compound 0.0316 µM): < 0.00949 µM
- IC50 (second compound 0.1 µM): < 0.00949 µM
- IC50 (second compound 0.316 µM): < 0.00949 µM
- IC50 (second compound 1 µM): < 0.00949 µM
- IC50 (second compound 3.16 µM): < 0.00949 µM
- IC50 (second compound 10 µM): < 0.00949 µM
- viability, T/C (second compound 0.0316 µM, first compound 0.00949 µM): 17.5%
- viability, T/C (second compound 0.0316 µM, first compound 0.03 µM): 9.49%
- viability, T/C (second compound 0.0316 µM, first compound 0.0949 µM): 9.45%
- viability, T/C (second compound 0.0316 µM, first compound 0.3 µM): 5.12%
- viability, T/C (second compound 0.0316 µM, first compound 0.949 µM): 6.11%
- viability, T/C (second compound 0.0316 µM, first compound 3 µM): 8.5%
- viability, T/C (second compound 0.1 µM, first compound 0.00949 µM): 14.3%
- viability, T/C (second compound 0.1 µM, first compound 0.03 µM): 10.3%
- viability, T/C (second compound 0.1 µM, first compound 0.0949 µM): 6.91%
- viability, T/C (second compound 0.1 µM, first compound 0.3 µM): 5.82%
- viability, T/C (second compound 0.1 µM, first compound 0.949 µM): 6.96%
- viability, T/C (second compound 0.1 µM, first compound 3 µM): 7.65%
- viability, T/C (second compound 0.316 µM, first compound 0.00949 µM): 15.2%
- viability, T/C (second compound 0.316 µM, first compound 0.03 µM): 10.9%
- viability, T/C (second compound 0.316 µM, first compound 0.0949 µM): 8.77%
- viability, T/C (second compound 0.316 µM, first compound 0.3 µM): 8.04%
- viability, T/C (second compound 0.316 µM, first compound 0.949 µM): 7.71%
- viability, T/C (second compound 0.316 µM, first compound 3 µM): 6.2%
- viability, T/C (second compound 1 µM, first compound 0.00949 µM): 16.9%
- viability, T/C (second compound 1 µM, first compound 0.03 µM): 8.87%
- viability, T/C (second compound 1 µM, first compound 0.0949 µM): 7.59%
- viability, T/C (second compound 1 µM, first compound 0.3 µM): 5.96%
- viability, T/C (second compound 1 µM, first compound 0.949 µM): 7.86%
- viability, T/C (second compound 1 µM, first compound 3 µM): 7.38%
- viability, T/C (second compound 3.16 µM, first compound 0.00949 µM): 13.7%
- viability, T/C (second compound 3.16 µM, first compound 0.03 µM): 9.96%
- viability, T/C (second compound 3.16 µM, first compound 0.0949 µM): 7.09%
- viability, T/C (second compound 3.16 µM, first compound 0.3 µM): 7.4%
- viability, T/C (second compound 3.16 µM, first compound 0.949 µM): 6.8%
- viability, T/C (second compound 3.16 µM, first compound 3 µM): 8.17%
- viability, T/C (second compound 10 µM, first compound 0.00949 µM): 12.7%
- viability, T/C (second compound 10 µM, first compound 0.03 µM): 10%
- viability, T/C (second compound 10 µM, first compound 0.0949 µM): 8.12%
- viability, T/C (second compound 10 µM, first compound 0.3 µM): 8.5%
- viability, T/C (second compound 10 µM, first compound 0.949 µM): 8.14%
- viability, T/C (second compound 10 µM, first compound 3 µM): 9.36%

Source: PubChem BioAssay AID1963847 (Molecular Pharmacology Branch, DTP, NCI, 2024)
